Results: patent US20140200144A1, “TREATMENT OF CROPS WITH A LOWER ALKYL N[…] ALTER CELL CYCLE AND WATER REGULATION” (1,4 GROUP, INC., priority 2013, published 2014)

Columns and labels:
potato meristems = assay: 3H-thymidine incorporation into DNA of meristems from DMN-treated tubers; format: cell-based, potato (Russet Burbank); conditions: for Thymidine incorporation (labeled thymidine taken up incorporated into DNA): meristems from tubers treated with DMN 3 days at 20° C.
Description: On the day of treatment, tubers were transferred from 3° to 20° C. and were immediately washed in running tap water. After drying at room temperature in the dark, the tubers were placed into 4 L airtight containers. A beaker containing about 5 g of activated charcoal was placed in the chamber containing the control tubers prior to sealing (Control). DMN (0.15 mL liquid) was placed on cotton wool in a beaker and sealed in the treatment chamber (DMN3 days). The chambers were incubated in the dark at 20° C. for three days. At this time tubers were removed and the lateral meristems were isolated using a curette with the aid of a dissecting microscope. Either used fresh (thymidine incorporation) or immediately frozen in liquid nitrogen and stored at −80° C., as previously described (Campbell et al., 1996). One group of DMN-treated tubers was incubated for a further two days in air (dark, 20° C.) prior to meristem isolation (DMN3 days+2). Samples were also collected from untreated non-dormant buds at day 0 immediately after removal from 3° C. storage; henceforth referred to as eco-dormant (Lang et al. 1987)
Freshly excised meristems were washed with deionized water and groups of 20 buds were incubated on 1 mL of buffer (10 mM Mes/KOH; pH 5.7) containing 0.9 μCi of ^3H-thymidine (60 μCi/μmole; American Radiolabeled Chemicals Inc., St. Louis, Mo.). The meristems were incubated on an oscillating shaker (100 rpm) at room temperature in the dark. After three hours, meristems were removed from the incubation media, washed extensively with deionized water followed by two washes with incubation buffer containing 5 mM unlabeled thymidine, blotted dry, frozen in liquid nitrogen, and stored at −80° C. To determine incorporation, the frozen meristems were homogenized in 1 mL ice-cold 10% (w/v) TCA. After standing on ice for 3-4 hours, the samples were vigorously mixed. An aliquot was removed and placed in a scintillation vial to determine total uptake. A second equal aliquot was removed and placed on a microfiber filter (GF/C; Whatman). […]

potato tubers [1] = conditions: J. Zalewsky, personal communication; cited from earlier work
[2] = system: potato meristem transcripts; assay: Microarray transcriptional profiling (POCI 44K oligo array) of potato meristems; format: cell-based, potato (Russet Burbank)
Description: On the day of treatment, tubers were transferred from 3° to 20° C. and were immediately washed in running tap water. After drying at room temperature in the dark, the tubers were placed into 4 L airtight containers. A beaker containing about 5 g of activated charcoal was placed in the chamber containing the control tubers prior to sealing (Control). DMN (0.15 mL liquid) was placed on cotton wool in a beaker and sealed in the treatment chamber (DMN3 days). The chambers were incubated in the dark at 20° C. for three days. At this time tubers were removed and the lateral meristems were isolated using a curette with the aid of a dissecting microscope. […] One group of DMN-treated tubers was incubated for a further two days in air (dark, 20° C.) prior to meristem isolation (DMN3 days+2).
RNA was isolated from frozen meristems by grinding to a fine powder in a mortar and pestle followed by isolation and purification using a Ribopure Kit (www.ambio.com). RNA was quantified using a BioSpec nano and quality was assessed by gel electrophoresis and visualization of ribosomal RNA. Total RNA (500 ng) was denatured in the presence of a T7 promoter primer and cDNA was synthesized using reverse transcriptase. The cDNA was used as a template for in vitro transcription by synthesis with T7RNA polymerase, which amplified target material and incorporated cyanine 3-labeled CTP. The labeled cRNA was purified using spin columns and quantified using a spectrophotometer. […] Probe generation and hybridization to the array were conducted through a contract to Gene Logic (www.genelogic.com). Twelve samples were used to probe against the POCI array, three samples from eco-dormant meristems (harvested directly from 3° C. storage), three samples from meristems isolated from tubers treated with DMN for three days in a closed container, three samples treated with water for three days in a closed container, three samples treated with DMN for three days and then exposed to air for two days. The three samples for each treatment were biological replicates.
Analysis of the microarray was conducted in two stages; total array data was examined using a linear model and the software limma, and pathway analysis was conducted by linking the potato sequences to the Arabidopsis thaliana. […] The data was corrected for background and normalized between arrays using a loess method. […] The use of limma for analysis of oligo arrays was accomplished by analyzing data from a single emission channel.
The array data was transformed to log base 2 and normalized between arrays using default parameters in GeneMathsXT software package (www.applied-maths.com). […] Pathway Studio 8.0 (www.ariadnegenomics.com) was utilized to determine metabolic changes that were associated with DMN treated for three days compared to controls.

[3] = system: potato meristem transcripts; assay: QT-PCR analysis of potato meristem transcripts; format: cell-based, potato (Russet Burbank); conditions: DMN for three days, vs control
Description: On the day of treatment, tubers were transferred from 3° to 20° C. and were immediately washed in running tap water. After drying at room temperature in the dark, the tubers were placed into 4 L airtight containers. A beaker containing about 5 g of activated charcoal was placed in the chamber containing the control tubers prior to sealing (Control). DMN (0.15 mL liquid) was placed on cotton wool in a beaker and sealed in the treatment chamber (DMN3 days). The chambers were incubated in the dark at 20° C. for three days. At this time tubers were removed and the lateral meristems were isolated using a curette with the aid of a dissecting microscope. […]
A set of transcripts was selected for further analysis to confirm the microarray data and to determine the possible cell cycle position of tubers treated with DMN. […] Therefore, primers were determined by isolating a longer DNA sequence from the DFCI-Potato Gene Index corresponding to the microarray oligonucleotide and searching that sequence for primers using the Applied Biosystems Primer Express 3.0 software (www.appliedbiosystems.com). cDNA template for QT-PCR was prepared from mRNA isolated from potato meristems treated with DMN for three days as described above. PCR reactions were run on a StepOne™ Real Time System and analyzed using Step One Software v2.0 (www.appliedbiosystems.com) to determine ΔΔCT values on a log10 scale. […]

ABA levels = conditions: Campbell et al. 2010; cited from earlier work
[4] = system: sprouting root and tuber crops, bulb crops, ornamentals; assay: Effect on sprouting crops; format: in vivo
potato tubers [5] = conditions: Beveridge et al. 1981; cited from earlier work
berries = conditions: freshly harvested berries; copending application; cited from earlier work
[6] = DMN three days vs three-day control

Cc1ccc(C)c2ccccc12 [DMN, 1,4-dimethylnaphthalene]
Thymidine incorporation (labeled thymidine taken up incorporated into DNA) (potato meristems; Run 1, control 14.3 ± 2.1%): 6.7 ± 0.4% | Thymidine incorporation (labeled thymidine taken up incorporated into DNA) (potato meristems; Run 2, control 12.5 ± 0.2%): 6.5 ± 1.0% | reduction in thymidine incorporation into DNA (potato meristems; non-dormant tuber meristems following DMN treatment, vs control): about 50% | turgidity and tuber fresh weight (potato tubers [1]): increase in turgidity and maintenance of tuber fresh weight | expression of transcripts that encode cyclin or cyclin-like proteins [2, 6]: decreased expression | transcripts assigned to water regulation and responses to salt stress [2, 6]: increased | expression of the Cln1 homolog CYCA1 ([2]; DMN treatment): decrease | Nucleoside diphosphate kinase (NDPK) transcript ([2]; exposure to DMN): down regulated | transcripts for CDKB1, CYCD3, PCNA, and UTPase (G1/S-phase or early S-phase) [3]: decreased | transcripts for KRP1, KRP2, MYC2, WRKY, and CYCA3 [3]: elevated | ABA levels over control tissues (ABA levels): did not result in an increase in ABA levels | effect on sprouting root and tuber crops ([4]; beet, carrot, cassaca, dasheen (taro), ginger, ginseng, horseradish, parsnip, pototato, sweet potato, turnip, yam): effective | effect on sprouting ornamentals ([4]; flowering bulbs): effective | effect on sprouting bulb crops ([4]; garlic, leek, onion, shallot): effective | premature sprouting of potato tubers (potato tubers [5]): shown to prevent premature sprouting | hydration and shelf life of berries (berries): maintain improved hydration
